The test system of data set [1] is P. aeruginosa PAO1. Further details: MICDrug / MICDrug in combo / MIC of adjuvant in combo: unit not given beside the values. As for the experimental part: The potential of the dilipid polymyxins to serve as an adjuvant in combination with other antibiotics was evaluated against P. aeruginosa PAO1 strain (Tables 4 and 7-12). […] Checkerboard assays were performed with the dilipid polymyxins in combination with twenty-one clinically-used antibiotics. The panel included representatives from the β-lactam, carbapenem, tetracycline, aminoglycoside and fluoroquinolone antibiotic families. Other agents that are used to treat Gram-negative bacterial infection such as fosfomycin, trimethoprim and chloramphenicol were also included. […] Fractional inhibitory concentration (FIC) index was calculated for each combination to measure potential synergism between the two agents. FIC was obtained by dividing the MIC of antibiotic/adjuvant in combination by the MIC of antibiotic/adjuvant alone, while FIC index was calculated by the summation of FIC indices for the antibiotic and adjuvant. An FIC index of ≤0.5, 0.5<x≤4, or >4 denotes for synergistic, additive or antagonistic interaction, respectively. Initially, we assessed the adjuvant properties of PMBN against the panel of 21 antibiotics.
The assay was performed on 96-well plates as previously described. Briefly, the antibiotic at study was 2-fold serially diluted along the x-axis, while the adjuvant was 2-fold serially diluted along the y-axis to create a matrix in which each well consists of a combination of both at different concentrations. Overnight grown bacterial cultures were diluted in saline to 0.5 McFarland turbidity, followed by 1:50 dilution in MHB and inoculation on each well to a final concentration of approximately 5×10^5 colony forming units/mL. Wells containing only MHB with or without bacterial cells were used as positive or negative control, respectively. […] The fractional inhibitory concentration (FIC) of the antibiotic was calculated via dividing the MIC of antibiotic in the presence of adjuvant by the MIC of antibiotic alone. Similarly, the FIC of adjuvant was calculated via dividing the MIC of adjuvant in the presence of antibiotic by the MIC of adjuvant alone. The FIC index was obtained by the summation of both FIC values. The FIC index was then interpreted as synergistic, additive, or antagonistic for values of ≤0.5, 0.5<x<4, or ≥4, respectively.

Data set [2] concerns P. aeruginosa PAO1. It counts as cell-based, Pseudomonas aeruginosa. To be noted: P. aeruginosa PAO1 (wild type). The text has this:
(§1) Bacterial strains were either obtained from the American Type Culture Collection (ATCC), Canadian National Intensive Care Unit (CAN-ICU) surveillance study or the Canadian Ward Surveillance (CANWARD) study. Strains from both CAN-ICU and CANWARD are isolates recovered from patients diagnosed with a presumed infectious disease that were admitted in a participating medical center across Canada. Efflux-deficient strain PAO200 (lacking MexAB-OprM efflux system) and PA0750 (lacking MexAB-OprM, MexCD-OprJ, MexEF-OprN, MexJK and MexXY efflux systems, and the outer membrane protein OpmH) were kindly gifted by Dr. Ayush Kumar (University of Manitoba).
(§2) The in vitro antibacterial activity of the compounds studied were assessed by broth microdilution susceptibility testing following CLSI guidelines. Bacterial cultures were grown overnight prior to the assay. The overnight grown cultures were diluted in saline to 0.5 McFarland turbidity, followed by 1:50 dilution in Mueller-Hinton broth (MHB) for inoculation to a final concentration of approximately 5×10^5 colony forming units/mL. Testing was performed on 96-well plates where the tested compounds were 2-fold serially diluted in MHB and incubated with equal volumes of bacterial inoculum at 37° C. for 18 h. […] Wells containing MHB with or without bacterial cells were used as positive or negative control, respectively.

A further data set deals with pig erythrocytes. To be noted: red cells of pig, 1 h, 512.
The next data set concerns P. aeruginosa PAO200.
Description: (§3) To our curiosity, we explored whether efflux can affect the activity of polymyxins. It is widely accepted that polymyxins disrupt Gram-negative bacterial membranes that result to intracellular component leakage and bacterial cell death. However, for this to occur requires the agent to reach the periplasmic space to interact and disrupt the inner membrane. Active efflux may potentially expel polymyxins out of the periplasm, effectively reducing its periplasmic and intracellular concentrations. To study the effect of efflux on polymyxins in Gram-negative pathogens, we used P. aeruginosa as they inherently overexpress efflux systems such as MexAB-OprM, MexCD-OprJ and MexXY-OprM. Moreover, antibiotic substrates for these efflux systems are mostly characterized. We evaluated and compared the activity of the dilipid polymyxins, colistin and PMBN against wild-type PAO1 and two efflux-deficient P. aeruginosa isogenic mutants (Table 5). The strain PAO200 lacks the MexAB-OprM efflux system while strain PAO750 lacks five clinically-relevant pumps (MexAB-OprM, MexCD-OprJ, MexEF-OprN, MexJK and MexXY) and outer membrane protein OpmH.
as §1, §2

Another data set concerns P. aeruginosa PAO750. As to conditions: P. aeruginosa PAO750, efflux-deficient strain that lacks five pumps and OpmH.
Description: as §3, §1, §2

The conditions of data set [3]: healthy volunteers; single dose up to 800 mg or multiple dose up to 600 mg every 8 hours for 14 consecutive days; cited from earlier work.

In brackets after ≈: the same amount, converted by molar mass. Read-outs that look alike come from different tables or passages of the source. Positions of bridges follow the written chain, without caps; N, C: chain ends. Non-standard residues stand in square brackets, D forms with d. Residues, ends and D or L forms follow the SMILES beside them. Dab = NCC[C@H](N)C(=O)O

`CC(C)C[C@@H]1NC(=O)[C@@H](Cc2ccccc2)NC(=O)[C@H](CCN)NC(=O)[C@@H](NC(=O)[C@H](CCN)NC(=O)[C@@H](N)[C@@H](C)O)CCNC(=O)[C@H]([C@@H](C)O)NC(=O)[C@H](CCN)NC(=O)[C@H](CCN)NC1=O` [PMBN, polymyxin B nonapeptide, reference compound] (H-T[Dab][Dab][Dab][dF]L[Dab][Dab]T; lactam 3-C (inferred)): the “MIC of adjuvant alone (MIC1, MIC2, MIC3, MIC4, MIC5, MICPMBN)” value in the data set with P. aeruginosa PAO1 [1] (adjuvant alone, one value per checkerboard, in µg/mL) came to 128. In addition, the Interpretation entry in the data set on P. aeruginosa PAO1 [1] (combination with Aztreonam) is “Synergy (An FIC index of ≤0.5, 0.5<x≤4, or >4 denotes for synergistic, additive or antagonistic interaction, respectively)”; with P. aeruginosa PAO1 [1] (combination with Ceftazidime) it was “Synergy (An FIC index of ≤0.5, 0.5<x≤4, or >4 denotes for synergistic, additive or antagonistic interaction, respectively)”; in the data set on P. aeruginosa PAO1 [1] (combination with Chloramphenicol), “Synergy (An FIC index of ≤0.5, 0.5<x≤4, or >4 denotes for synergistic, additive or antagonistic interaction, respectively)”; with P. aeruginosa PAO1 [1] (combination with Ciprofloxacin), “Synergy (An FIC index of ≤0.5, 0.5<x≤4, or >4 denotes for synergistic, additive or antagonistic interaction, respectively)”; in the data set on P. aeruginosa PAO1 [1] (combination with Clindamycin), “Synergy (An FIC index of ≤0.5, 0.5<x≤4, or >4 denotes for synergistic, additive or antagonistic interaction, respectively)”; in the data set on P. aeruginosa PAO1 [1] (combination with Doripenem) it was “Synergy (An FIC index of ≤0.5, 0.5<x≤4, or >4 denotes for synergistic, additive or antagonistic interaction, respectively)”. The Interpretation result in the data set with P. aeruginosa PAO1 [1] (combination with Doxycycline) is recorded as “Synergy (An FIC index of ≤0.5, 0.5<x≤4, or >4 denotes for synergistic, additive or antagonistic interaction, respectively)”; in the data set with P. aeruginosa PAO1 [1] (combination with Fosfomycin), “Synergy (An FIC index of ≤0.5, 0.5<x≤4, or >4 denotes for synergistic, additive or antagonistic interaction, respectively)”; in the data set on P. aeruginosa PAO1 [1] (combination with Gentamicin), “Additive (An FIC index of ≤0.5, 0.5<x≤4, or >4 denotes for synergistic, additive or antagonistic interaction, respectively)”; in the data set on P. aeruginosa PAO1 [1] (combination with Linezolid) it was “Synergy (An FIC index of ≤0.5, 0.5<x≤4, or >4 denotes for synergistic, additive or antagonistic interaction, respectively)”; in the data set on P. aeruginosa PAO1 [1] (combination with Meropenem), “Synergy (An FIC index of ≤0.5, 0.5<x≤4, or >4 denotes for synergistic, additive or antagonistic interaction, respectively)”; in the data set on P. aeruginosa PAO1 [1] (combination with Minocycline), “Synergy (An FIC index of ≤0.5, 0.5<x≤4, or >4 denotes for synergistic, additive or antagonistic interaction, respectively)”. The Interpretation entry in the data set on P. aeruginosa PAO1 [1] (combination with Moxifloxacin) is reported as “Synergy (An FIC index of ≤0.5, 0.5<x≤4, or >4 denotes for synergistic, additive or antagonistic interaction, respectively)”; in the data set with P. aeruginosa PAO1 [1] (combination with Novobiocin) it was “Synergy (An FIC index of ≤0.5, 0.5<x≤4, or >4 denotes for synergistic, additive or antagonistic interaction, respectively)”; in the data set on P. aeruginosa PAO1 [1] (combination with Piperacillin), “Synergy (An FIC index of ≤0.5, 0.5<x≤4, or >4 denotes for synergistic, additive or antagonistic interaction, respectively)”; in the data set on P. aeruginosa PAO1 [1] (combination with Pleuromutilin), “Synergy (An FIC index of ≤0.5, 0.5<x≤4, or >4 denotes for synergistic, additive or antagonistic interaction, respectively)”; in the data set on P. aeruginosa PAO1 [1] (combination with Rifampicin), “Synergy (An FIC index of ≤0.5, 0.5<x≤4, or >4 denotes for synergistic, additive or antagonistic interaction, respectively)”; in the data set with P. aeruginosa PAO1 [1] (combination with Streptomycin) it was “Additive (An FIC index of ≤0.5, 0.5<x≤4, or >4 denotes for synergistic, additive or antagonistic interaction, respectively)”. In addition, the Interpretation result in the data set with P. aeruginosa PAO1 [1] (combination with Tobramycin) was “Additive (An FIC index of ≤0.5, 0.5<x≤4, or >4 denotes for synergistic, additive or antagonistic interaction, respectively)”; with P. aeruginosa PAO1 [1] (combination with Trimethoprim) it was “Synergy (An FIC index of ≤0.5, 0.5<x≤4, or >4 denotes for synergistic, additive or antagonistic interaction, respectively)”; with P. aeruginosa PAO1 [1] (combination with Vancomycin), “Synergy (An FIC index of ≤0.5, 0.5<x≤4, or >4 denotes for synergistic, additive or antagonistic interaction, respectively)”. In addition, the “MIC of adjuvant in combo” value in the data set with P. aeruginosa PAO1 [1] (in combination with Aztreonam) is listed as “(4)”; with P. aeruginosa PAO1 [1] (in combination with Ceftazidime) it was “(8)”; in the data set on P. aeruginosa PAO1 [1] (in combination with Chloramphenicol), “(1)”; with P. aeruginosa PAO1 [1] (in combination with Ciprofloxacin), “(32)”; in the data set on P. aeruginosa PAO1 [1] (in combination with Clindamycin), “(0.5)”; with P. aeruginosa PAO1 [1] (in combination with Doripenem), “(8)”. Also, the “MIC of adjuvant in combo” value is “(4)” in the data set with P. aeruginosa PAO1 [1] (in combination with Doxycycline); “(32)” with P. aeruginosa PAO1 [1] (in combination with Fosfomycin); “(64)” in the data set with P. aeruginosa PAO1 [1] (in combination with Gentamicin); “(4)” in the data set on P. aeruginosa PAO1 [1] (in combination with Linezolid); “(16)” with P. aeruginosa PAO1 [1] (in combination with Meropenem); “(8)” in the data set on P. aeruginosa PAO1 [1] (in combination with Minocycline). For the same compound, the “MIC of adjuvant in combo” value in the data set with P. aeruginosa PAO1 [1] (in combination with Moxifloxacin) is listed as “(32)”; in the data set on P. aeruginosa PAO1 [1] (in combination with Novobiocin), “(4)”; in the data set with P. aeruginosa PAO1 [1] (in combination with Piperacillin), “(8)”; with P. aeruginosa PAO1 [1] (in combination with Pleuromutilin) it was “(0.5)”; in the data set on P. aeruginosa PAO1 [1] (in combination with Rifampicin), “(0.5)”; in the data set with P. aeruginosa PAO1 [1] (in combination with Streptomycin), “(0.5)”. In addition, the “MIC of adjuvant in combo” value in the data set with P. aeruginosa PAO1 [1] (in combination with Tobramycin) is listed as “(0.5)”; in the data set on P. aeruginosa PAO1 [1] (in combination with Trimethoprim) it was “(4)”; in the data set with P. aeruginosa PAO1 [1] (in combination with Vancomycin) it was “(1)”. The “adjuvant activity (potentiation of the panel of 21 antibiotics)” value in the data set with P. aeruginosa PAO1 [1] (result in words) was “potentiated all antibiotics tested except for those belonging to the aminoglycoside family”. The MIC against P. aeruginosa PAO1 [2] was found to be 128 µg/mL (≈ 133 µM); against P. aeruginosa PAO200 (P. aeruginosa PAO200, efflux-deficient strain that lacks the MexAB-OprM pump), 2 µg/mL (≈ 2.08 µM); against P. aeruginosa PAO750, 4 µg/mL (≈ 4.15 µM). Moreover, the “% Hemolysis at 512 μg/mL of polymyxin” value in the data set with pig erythrocytes was determined as 1.1 ± 0.1%. Further, in the data set on P. aeruginosa PAO200 (PAO1 versus PAO200 (lacks MexAB-OprM)), the “fold difference in MIC against wild-type PAO1 and efflux-deficient PAO200” value turned out to be 64 fold.
`CC(C)(O/N=C(\C(=O)N[C@@H]1C(=O)N2C(C(=O)[O-])=C(C[n+]3ccccc3)CS[C@H]12)c1csc(N)n1)C(=O)O` [Ceftazidime, reference compound]: the MICDrug with P. aeruginosa PAO1 [1] (antibiotic alone) came to 2. The MICDrug in combo result in the data set on P. aeruginosa PAO1 [1] (antibiotic in combination with 1) is on record as “(0.25)”; in the data set on P. aeruginosa PAO1 [1] (antibiotic in combination with 2), “(1)”; in the data set with P. aeruginosa PAO1 [1] (antibiotic in combination with 3), “(1)”; in the data set on P. aeruginosa PAO1 [1] (antibiotic in combination with 4), “(0.0625)”; with P. aeruginosa PAO1 [1] (antibiotic in combination with 5), “(0.25)”; with P. aeruginosa PAO1 [1] (antibiotic in combination with PMBN), “(0.25)”.
For `CC(=O)N[C@H](C(=O)N[C@H](CO)C(=O)N[C@H]1CCNC(=O)[C@H]([C@@H](C)O)NC(=O)[C@H](CCN)NC(=O)[C@H](CCN)NC(=O)[C@H](CC(C)C)NC(=O)[C@@H](Cc2ccccc2)NC(=O)[C@H](CCN)NC1=O)[C@@H](C)O` [SPR741] (Ac-T[dS][Dab][Dab][dF]L[Dab][Dab]T; lactam 3-C), in data set [3], the tolerability entry was “well-tolerated”.

The values are drawn from patent US20210261621A1, “Preparation of Dilipid Polymixins and Use Thereof as Antimicrobial Adjuvants” (priority 2018, published 2021).
